{"source": "patent US10022366B2", "about": "“Extending and maintaining micropore viability of microneedle treated skin with lipid biosynthesis inhibitors for sustained drug delivery” (University of Maryland, Baltimore, priority 2013, dated 2018)", "key": {"[1]": {"test": "Reversibility/recovery of pores by transepidermal water loss (TEWL)", "type": "in vivo, hairless guinea pigs (HGP)", "conditions": "after removal of occlusion at 7 days; compared among the 5 treatment sites; p>0.05", "from_the_text": "The reversibility/recovery of the pores following removal of occlusion was studied using transepidermal water loss (TEWL) in a HGP model. Five different sites were chosen on the dorsal region of an animal. […] All sites were marked and cleaned on the day of the treatment. […] The concentration and amount of NTX gel and FLU were consistent with the PK studies. A placebo gel was used for site 3 and site 4. The placebo gel was similar in composition to the NTX gel with 10% PG, 1% benzyl alcohol and 3% HEC as the gelling agent. […] All sites were occluded using a transdermal patch (148) secured in place with Bioclusive™ tape. […] All experiments were conducted at least in triplicate. Recovery of the skin, (i.e., regeneration of the barrier function of the SC) was studied using TEWL. These studies were carried out to look at the effect of the local concentration of FLU on the recovery/healing of the skin following removal of occlusion."}, "[2]": {"test": "In vitro diffusion studies across MN treated skin (NTX flux, NTX and FLU skin concentration)", "type": "in vitro ADME, Yucatan miniature pig", "conditions": "p>0.05", "description": "NTX and FLU were quantified using high pressure liquid chromatography (HPLC). The HPLC system consisted of a Waters 717 plus auto-sampler, a Waters 600 quaternary pump, and a Waters 2487 dual wavelength absorbance detector with Waters Empower™ software. A Perkin Elmer Brownlee™ Spheri 5 VL C18 column (5μ, 220×4.6 mm) and a C18 guard column (15×3.2 mm) were used with the UV detector set at a wavelength of 280 nm for NTX and 305 nm for FLU. The mobile phase consisted of 65:35 (v/v) ACN: (0.1% TFA with 0.065% 1-octane sulfonic acid sodium salt, adjusted to pH 3.0 with TEA aqueous phase). Samples were run at a flow rate of 1.5 ml/min. The injection volume used was […] for all samples.\nIn vitro studies were performed to look at the flux across MN treated skin and the skin concentrations of NTX and FLU in the skin. Full-thickness Yucatan miniature pig skin was used for all in vitro experiments. All pig tissue harvesting experiments were done under IACUC approved protocols at the University of Kentucky. Fresh skin was cleaned to remove excess subcutaneous fat, dermatomed and stored at −20° C. Skin was thawed and cut into small square pieces on the day of the diffusion experiment. The thickness was measured for each individual piece of skin and the average thickness of all treatment groups was maintained between 1.4-1.8 mm. Skin was next treated with a 5 MN in-plane array, 10 times in one direction and 10 times in a mutually perpendicular direction to generate a total of 100 MN insertions within the active treatment area of 0.95 cm^2. Five treatment groups were used based on the 4 different vehicles used for FLU and a control for NTX only; all studies were done in triplicate. […] All samples were analyzed using HPLC. The steady state flux of NTX was calculated using the steady state portion of the cumulative amount permeated vs. time plot. The skin concentrations of both drugs were also determined at the end of the study by extracting the drug overnight into 10 mL of ACN, and injecting the extracted sample onto the HPLC column after appropriate dilutions. […]"}, "[3]": {"test": "Pharmacokinetic studies of NTX after MN treatment with or without FLU", "conditions": "for AUC / Cmax / Tmax: hairless, guinea pig, plasma"}, "[4]": {"test": "Skin irritation by colorimetry (change in erythema, Δa*)", "type": "in vivo, hairless guinea pigs (HGP)", "conditions": "immediately following treatment or following removal of the patches at 7 days; among treatment groups; p>0.05", "description": "Local skin irritation can be one of the major drawbacks of topical/transdermal delivery, so irritation studies were conducted to look at the effect of local FLU treatment of the skin in HGP. The studies were conducted using the same treatment groups as the recovery studies. Colorimeter (Chroma Meter CR-400, Konica, Minolta, Japan) readings were obtained, in triplicate, at each site before and immediately after the treatment. The data were used to record changes in the color of the skin from baseline based on 3 different color axes, the red-green axis (a*), the black-white axis (L*) and the yellow-blue axis (b*). […] The degree of redness of the skin or the change in erythema of the skin was measured by the change in the red green axis (Δa*) values. Skin irritation studies were conducted in triplicate."}, "[5]": {"conditions": "cited from earlier work"}, "[6]": {"conditions": "humans; cited from earlier work"}, "[7]": {"test": "Solubility of FLU in the deposition formulations", "type": "physicochemical", "conditions": "in the four deposition formulations (ethanol, acetone, PG-ethanol, PG-ethanol-water)", "description": "(§1) In order to optimize FLU skin concentration and NTX flux, in certain embodiments, four different methods were chosen for FLU deposition. […] Ethanol (200 proof) was chosen for in vivo studies because it is a frequently used topical excipient and most of the 40 μl ethanol used was allowed to evaporate before application of the drug gel. […] The other two formulations tested contained either 70% or 25% PG. […] See Ghosh P. et al., 2013. Development of a codrug approach for sustained delivery across MN treated skin. […] See Milewski M., Stinchcomb A 2011. Vehicle Composition Influence on the MN-Enhanced Transdermal Flux of Naltrexone Hydrochloride. Pharmaceutical Research 28: 124-134. The formulations also contained large amounts of ethanol, a known permeation enhancer, and evaporation of the ethanol from these was not as efficient due to the presence of PG. Solubility of FLU was not an issue with any of the formulations. Therefore, in a preferred embodiment, 40 μl of 1.5% FLU in 200 proof ethanol was chosen as the vehicle for FLU deposition. Ethanol is a well-known chemical enhancer used in the topical/transdermal industry. It acts by replacing the water molecules in the lipid polar head groups as well as the protein regions of the SC, thus enhancing free volume and permeability of molecules across the skin. See Feingold K R 2009. The outer frontier: the importance of lipid metabolism in the skin. […]"}, "[8]": {"conditions": "using MN, humans, no pore lifetime enhancer; cited from earlier work"}, "[9]": {"conditions": "daily/alternate day topical application; compared to 2-3 days without pore lifetime enhancement agent; cited from earlier work"}, "[10]": {"conditions": "established positive control treatment in HGP, 0.5% solution; cited from earlier work"}, "[11]": {"test": "Irritation in the MN-treated animal models (data not shown)", "type": "in vivo", "conditions": "FLU deposition vehicle on MN-treated animal models", "description": "as §1"}}, "note": "Structures can show the parent of a compound that is named as a salt.", "data": [{"smiles": "CC(C)n1c(/C=C/C(O)CC(O)CC(=O)O)c(-c2ccc(F)cc2)c2ccccc21", "note": "(stereo not shown) [FLU, fluvastatin sodium]", "values": [{"measurement": "recovery of the skin (TEWL enhancement ratio over baseline)", "setting": "[1]", "result": "no significant differences"}, {"measurement": "concentration of FLU in the skin", "setting": "[2]; irrespective of the method of FLU deposition, 1.5% FLU, 40 μl", "result": "no significant difference"}, {"measurement": "enhancement of drug delivery (window)", "setting": "[3]; NTX delivery across MN-treated skin with addition of FLU", "result": 7, "unit": "days"}, {"measurement": "change in erythema (Δa*)", "setting": "[4]", "result": "no significant differences"}, {"measurement": "log P", "setting": "[5]", "result": 4.6}, {"measurement": "pKa", "setting": "[5]", "result": 4.27}, {"measurement": "oral bioavailability", "setting": "[6]", "result": "9-50%"}, {"measurement": "solubility", "setting": "[7]", "result": "not an issue"}]}, {"smiles": "O=C1CC[C@@]2(O)[C@H]3Cc4ccc(O)c5c4[C@@]2(CCN3CC2CC2)[C@H]1O5", "note": "[NTX, Naltrexone HCL]", "values": [{"measurement": "flux across MN treated skin", "setting": "[2]; NTX flux compared among the 5 treatment groups (4 FLU vehicles, NTX only control)", "result": "no significant difference"}, {"measurement": "concentration of NTX in the skin", "setting": "[2]; irrespective of the method of FLU deposition", "result": "no significant difference"}, {"measurement": "plasma concentrations", "setting": "[3]; NTX, FLU treatment group, throughout the range of the study (168 h)", "result": "above 2 ng/mL"}, {"measurement": "lag time with MN enhanced delivery", "setting": "[3]; NTX, any of the three groups", "result": "no lag time observed"}, {"measurement": "time after treatment at which drug was quantified in plasma", "setting": "[3]; NTX, patch system on MN treated skin", "result": "≤ 15", "unit": "min"}, {"measurement": "plasma concentrations", "setting": "[3]; NTX, vehicle control (ethanol), beyond 144 h", "result": "below 2 ng/mL"}, {"measurement": "time for which detectable levels of NTX were present in the plasma", "setting": "[3]; all study groups, HGP", "result": 72, "unit": "h"}, {"measurement": "NTX concentration in the plasma", "setting": "[3]; ethanol treated group, at 7 days", "result": "< 2", "unit": "ng/mL"}, {"measurement": "AUC", "setting": "[3]; topical or ocular, 200 μL NTX gel, NTX in plasma, HGP, MN control: MN + NTX gel", "result": "614 ± 213", "unit": "ng·h/mL"}, {"measurement": "Cmax", "setting": "[3]; topical or ocular, 200 μL NTX gel, NTX in plasma, HGP, MN control: MN + 200 μL NTX gel, n=3", "result": "39.4 ± 11.5", "unit": "ng/mL"}, {"measurement": "Tmax", "setting": "[3]; topical or ocular, 200 μL NTX gel, Tmax, NTX in plasma, HGP, MN control: MN + NTX gel", "result": "2.8 ± 2", "unit": "h"}, {"measurement": "AUC", "setting": "[3]; topical or ocular, NTX in plasma, HGP, Treatment group: MN + NTX gel + FLU in ethanol", "result": "1410 ± 1040", "unit": "ng·h/mL"}, {"measurement": "AUC", "setting": "[3]; topical or ocular, NTX in plasma, HGP, Vehicle control: MN + NTX gel + ethanol", "result": "1700 ± 1670", "unit": "ng·h/mL"}, {"measurement": "Cmax", "setting": "[3]; topical or ocular, NTX in plasma, HGP, Treatment group: MN + 300 μL NTX gel + 40 μL FLU in ethanol (200 proof), n=3", "result": "38.1 ± 19.7", "unit": "ng/mL"}, {"measurement": "Cmax", "setting": "[3]; topical or ocular, NTX in plasma, HGP, Vehicle control: MN + 300 μL NTX gel + 40 μL ethanol (200 proof), n=4", "result": "39.3 ± 19.2", "unit": "ng/mL"}, {"measurement": "Tmax", "setting": "[3]; topical or ocular, Tmax, NTX in plasma, HGP, Treatment group: MN + NTX gel + FLU in ethanol", "result": "2.7 ± 3.8", "unit": "h"}, {"measurement": "Tmax", "setting": "[3]; topical or ocular, Tmax, NTX in plasma, HGP, Vehicle control: MN + NTX gel + ethanol", "result": "1.4 ± 1.7", "unit": "h"}, {"measurement": "Tmax", "setting": "[3]; topical, Tmax or time to maximum plasma concentration, NTX, all studies", "result": "0.25 to 4", "unit": "h"}, {"measurement": "NTX levels", "setting": "[3]; vehicle control group, until 144 hours", "result": "above 2 ng/ml"}, {"measurement": "duration of delivery at therapeutic levels", "setting": "[8]", "result": "2 to 3", "unit": "days"}]}, {"smiles": "O=C(O)Cc1ccccc1Nc1c(Cl)cccc1Cl", "note": "[diclofenac, diclofenac sodium]", "values": [{"measurement": "period of drug delivery following MN treatment", "setting": "[9]", "result": 7, "unit": "days"}]}, {"smiles": "CCCCCCCCCCCCOS(=O)(=O)[O-].[Na+]", "note": "[sodium lauryl sulfate]", "values": [{"measurement": "Δa* value", "setting": "[10]", "result": 12.3}]}, {"smiles": "CC(C)=O", "note": "[Acetone, acetone]", "values": [{"measurement": "irritation", "setting": "[11]", "result": "caused irritation"}]}]}
